Measured values from article PMC9652956, “The ovipositor cue indole inhibits animal host attraction in Aedes aegypti (Diptera: Culicidae) mosquitoes” (Parasites & Vectors, 2022).

Experiments:
[1] = target: T1, AaegOR8 (Aedes aegypti (R)-1-octen-3-ol receptor OR8) (Aedes aegypti, UniProt Q16MN0); assay: two-electrode voltage clamp, Xenopus oocytes; baseline current shift under […] perfusion versus water-injected oocytes; format: cell-based
T1 construct: gene GPRor8; with AaegOrco
T1 sequence (Q16MN0 1-422): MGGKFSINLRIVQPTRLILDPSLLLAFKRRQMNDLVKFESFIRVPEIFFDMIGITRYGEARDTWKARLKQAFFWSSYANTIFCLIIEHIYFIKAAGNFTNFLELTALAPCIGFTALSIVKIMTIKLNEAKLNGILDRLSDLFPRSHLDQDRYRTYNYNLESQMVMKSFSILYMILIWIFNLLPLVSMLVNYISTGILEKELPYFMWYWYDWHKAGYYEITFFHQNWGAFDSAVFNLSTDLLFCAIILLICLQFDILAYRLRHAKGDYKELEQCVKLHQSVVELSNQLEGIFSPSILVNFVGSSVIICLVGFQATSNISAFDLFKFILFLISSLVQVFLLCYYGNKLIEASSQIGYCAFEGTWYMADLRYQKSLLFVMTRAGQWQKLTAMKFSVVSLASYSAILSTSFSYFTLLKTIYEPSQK
T1 sequence (Q178U6 1-478 partner): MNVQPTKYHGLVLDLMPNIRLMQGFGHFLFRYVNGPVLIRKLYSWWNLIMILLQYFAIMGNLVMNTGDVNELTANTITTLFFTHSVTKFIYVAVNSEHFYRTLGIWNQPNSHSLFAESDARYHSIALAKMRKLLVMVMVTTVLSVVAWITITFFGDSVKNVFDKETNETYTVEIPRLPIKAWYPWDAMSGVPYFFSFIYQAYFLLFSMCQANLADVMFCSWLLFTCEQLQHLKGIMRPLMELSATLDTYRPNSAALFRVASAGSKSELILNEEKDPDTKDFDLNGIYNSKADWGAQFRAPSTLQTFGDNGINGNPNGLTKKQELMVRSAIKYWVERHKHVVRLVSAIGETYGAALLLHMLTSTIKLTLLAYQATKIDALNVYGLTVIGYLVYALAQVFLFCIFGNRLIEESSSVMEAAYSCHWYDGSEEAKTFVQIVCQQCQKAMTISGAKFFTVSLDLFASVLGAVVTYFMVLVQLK

[2] = target: T1, AaegOR8 (Aedes aegypti (R)-1-octen-3-ol receptor OR8); assay: two-electrode voltage clamp, Xenopus oocytes expressing AaegOR8-Orco; about […] inhibition at […]; not active on Orco alone; format: cell-based; conditions: read-out: % reduction at 10^-3 M

| Compound | two-electrode voltage clamp, Xenopus oocytes; baseline current shift under 0.01 [1] | inhibition at 1000 µM [2] |
| --- | --- | --- |
| CCCCN(CCC(=O)OCC)C(C)=O [IR3535] | Indole and insect repellents (DEET, IR3535) increased the baseline current state of AaegOR8-Orco-injected oocytes | – |
| c1ccc2[nH]ccc2c1 [indole] | – | ~30% |
| CCN(CC)C(=O)c1cccc(C)c1 [DEET] | Indole and insect repellents (DEET, IR3535) increased the baseline current state of AaegOR8-Orco-injected oocytes | – |
